# From patent publication US20070049564A1 (Wyeth, priority 2005, published 2007)
# Read-outs that look alike come from different tables or passages of the source.
# Columns and labels:
# S. typhimurium GC 2172 = assay: MIC, broth microdilution; settings: Salmonella enterica, TYPHIMURIUM
# E. coli GC 6465 = assay: MIC, broth microdilution; settings: Escherichia coli
# S. pneumoniae* GC 4465 = assay: MIC, broth microdilution; settings: Streptococcus pneumoniae
# S. aureus GC 6467 = assay: MIC, broth microdilution; settings: Staphylococcus aureus
# E. faecalis GC 4555 = assay: MIC, broth microdilution; settings: Enterococcus faecalis
# E. coli GC 2236 = assay: MIC, broth microdilution; settings: Escherichia coli
# S. epidermidis GC 4935 = assay: MIC, broth microdilution; settings: Staphylococcus epidermidis
# E. coli GC 2231 = assay: MIC, broth microdilution; settings: Escherichia coli
# E. coli GC 2234 = assay: MIC, broth microdilution; settings: Escherichia coli
# E. coli GC 2272 = assay: MIC, broth microdilution; settings: Escherichia coli
# S. aureus GC 6466 = assay: MIC, broth microdilution; settings: Staphylococcus aureus
# E. faecalis GC 2267 = assay: MIC, broth microdilution; settings: Enterococcus faecalis
# S. aureus GC 1131 = assay: MIC, broth microdilution; settings: Staphylococcus aureus
# Staph. = assay: Range of MIC for Staph. strains, including MRSA; settings: Staphylococcus aureus
# E. coli GC 2203 = assay: MIC, broth microdilution; settings: Escherichia coli
# S. aureus GC 1079 = assay: MIC, broth microdilution; settings: Staphylococcus aureus
# E. coli GC 2233 = assay: MIC, broth microdilution; settings: Escherichia coli
# E. coli GC 2235 = assay: MIC, broth microdilution; settings: Escherichia coli
# E. coli GC 4560 = assay: MIC, broth microdilution; settings: Escherichia coli
# E. faecium GC 4556 = assay: MIC, broth microdilution; settings: Enterococcus faecium
# [1] = read-out: MINIMAL INHIBITORY CONCENTRATION MIC, pre-incubated in Mouse Serum
# [2] = read-out: MINIMAL INHIBITORY CONCENTRATION MIC, pre-incubated in Water
compound,measurement,setting,value
"CCCN(CC(=O)Nc1cc(N(C)C)c2c(c1O)C(=O)C1=C(O)[C@]3(O)C(=O)C(C(N)=O)=C(O)[C@@H](N(C)C)[C@@H]3C[C@@H]1C2)C(=O)OCOC(=O)c1ccsc1 [Example 27, ({[(2-{[(5aR,6aS,7S,10aS)-9-(aminocarbonyl)-4,7-bis(dimethylamino)-1,8,10a,11-tetrahydroxy-10,12-dioxo-5,5a,6,6a,7,10,10a,12-octahydrotetracen-2-yl]amino}-2-oxoethyl)(propyl)amino]carbonyl}oxy)methyl thiophene-3-carboxylate]",MIC,S. typhimurium GC 2172; [1],4 µg/mL
same,MIC,S. typhimurium GC 2172; [2],> 64 µg/mL
same,MIC,"E. coli GC 6465; GC6465, read-out: MINIMAL INHIBITORY CONCENTRATION MIC, pre-incubated in Mouse Serum",4 µg/mL
same,MIC,"E. coli GC 6465; GC6465, read-out: MINIMAL INHIBITORY CONCENTRATION MIC, pre-incubated in Water",> 64 µg/mL
same,MIC,S. pneumoniae* GC 4465; [1],< 0.06 µg/mL
same,MIC,S. pneumoniae* GC 4465; [2],< 0.06 µg/mL
same,MIC,"S. aureus GC 6467; GC6467, read-out: MINIMAL INHIBITORY CONCENTRATION MIC, pre-incubated in Mouse Serum",2 µg/mL
same,MIC,"S. aureus GC 6467; GC6467, read-out: MINIMAL INHIBITORY CONCENTRATION MIC, pre-incubated in Water",2 µg/mL
same,MIC,"E. faecalis GC 4555; GC4555, read-out: MINIMAL INHIBITORY CONCENTRATION MIC, pre-incubated in Mouse Serum",0.25 µg/mL
same,MIC,"E. faecalis GC 4555; GC4555, read-out: MINIMAL INHIBITORY CONCENTRATION MIC, pre-incubated in Water",1 µg/mL
same,MIC,"E. coli GC 2236; GC2236, read-out: MINIMAL INHIBITORY CONCENTRATION MIC, pre-incubated in Mouse Serum",0.5 µg/mL
same,MIC,"E. coli GC 2236; GC2236, read-out: MINIMAL INHIBITORY CONCENTRATION MIC, pre-incubated in Water",64 µg/mL
same,MIC,"S. epidermidis GC 4935; GC4935, read-out: MINIMAL INHIBITORY CONCENTRATION MIC, pre-incubated in Mouse Serum",0.25 µg/mL
same,MIC,"S. epidermidis GC 4935; GC4935, read-out: MINIMAL INHIBITORY CONCENTRATION MIC, pre-incubated in Water",1 µg/mL
same,MIC,"E. coli GC 2231; GC2231, read-out: MINIMAL INHIBITORY CONCENTRATION MIC, pre-incubated in Mouse Serum",1 µg/mL
same,MIC,"E. coli GC 2231; GC2231, read-out: MINIMAL INHIBITORY CONCENTRATION MIC, pre-incubated in Water",> 64 µg/mL
same,MIC,"E. coli GC 2234; GC2234, read-out: MINIMAL INHIBITORY CONCENTRATION MIC, pre-incubated in Mouse Serum",0.5 µg/mL
same,MIC,"E. coli GC 2234; GC2234, read-out: MINIMAL INHIBITORY CONCENTRATION MIC, pre-incubated in Water",64 µg/mL
same,MIC,"E. coli GC 2272; GC2272, read-out: MINIMAL INHIBITORY CONCENTRATION MIC, pre-incubated in Mouse Serum",0.5 µg/mL
same,MIC,"E. coli GC 2272; GC2272, read-out: MINIMAL INHIBITORY CONCENTRATION MIC, pre-incubated in Water",32 µg/mL
same,MIC,"S. aureus GC 6466; GC6466, read-out: MINIMAL INHIBITORY CONCENTRATION MIC, pre-incubated in Mouse Serum",0.12 µg/mL
same,MIC,"S. aureus GC 6466; GC6466, read-out: MINIMAL INHIBITORY CONCENTRATION MIC, pre-incubated in Water",0.25 µg/mL
same,MIC,"E. faecalis GC 2267; GC2267, read-out: MINIMAL INHIBITORY CONCENTRATION MIC, pre-incubated in Mouse Serum",1 µg/mL
same,MIC,"E. faecalis GC 2267; GC2267, read-out: MINIMAL INHIBITORY CONCENTRATION MIC, pre-incubated in Water",2 µg/mL
same,MIC,"S. aureus GC 1131; GC1131, read-out: MINIMAL INHIBITORY CONCENTRATION MIC, pre-incubated in Mouse Serum",0.12 µg/mL
same,MIC,"S. aureus GC 1131; GC1131, read-out: MINIMAL INHIBITORY CONCENTRATION MIC, pre-incubated in Water",0.25 µg/mL
same,MIC,"Staph.; MRSA, read-out: Range of MIC, Staph (Mouse Serum)",0.12 to 2 µg/mL
same,MIC,"Staph.; MRSA, read-out: Range of MIC, Staph (Water)",0.12 to 2 µg/mL
same,MIC,"Staph.; MRSA, read-out: Range of MIC, Staph. (mouse serum)",0.12 to 2 µg/mL
same,MIC,"Staph.; MRSA, read-out: Range of MIC, Staph. (water)",0.12 to 2 µg/mL
same,MIC,"Staph.; read-out: Minimum inhibitory concentration (MIC), Staph (Human Serum)",0.25 to 2 µg/mL
same,MIC,"Staph.; read-out: Minimum inhibitory concentration (MIC), Staph (Water)",0.5 to 4 µg/mL
same,MIC,"E. coli GC 2203; GC2203, read-out: MINIMAL INHIBITORY CONCENTRATION MIC, pre-incubated in Mouse Serum",0.5 µg/mL
same,MIC,"E. coli GC 2203; GC2203, read-out: MINIMAL INHIBITORY CONCENTRATION MIC, pre-incubated in Water",> 64 µg/mL
same,MIC,"S. aureus GC 1079; GC1079, read-out: MINIMAL INHIBITORY CONCENTRATION MIC, pre-incubated in Mouse Serum",1 µg/mL
same,MIC,"S. aureus GC 1079; GC1079, read-out: MINIMAL INHIBITORY CONCENTRATION MIC, pre-incubated in Water",2 µg/mL
same,MIC,"E. coli GC 2233; GC2233, read-out: MINIMAL INHIBITORY CONCENTRATION MIC, pre-incubated in Mouse Serum",0.5 µg/mL
same,MIC,"E. coli GC 2233; GC2233, read-out: MINIMAL INHIBITORY CONCENTRATION MIC, pre-incubated in Water",64 µg/mL
same,MIC,"E. coli GC 2235; GC2235, read-out: MINIMAL INHIBITORY CONCENTRATION MIC, pre-incubated in Mouse Serum",0.5 µg/mL
same,MIC,"E. coli GC 2235; GC2235, read-out: MINIMAL INHIBITORY CONCENTRATION MIC, pre-incubated in Water",64 µg/mL
same,MIC,"E. coli GC 4560; GC4560, read-out: MINIMAL INHIBITORY CONCENTRATION MIC, pre-incubated in Mouse Serum",0.25 µg/mL
same,MIC,"E. coli GC 4560; GC4560, read-out: MINIMAL INHIBITORY CONCENTRATION MIC, pre-incubated in Water",1 µg/mL
same,MIC,"E. faecium GC 4556; GC4556, read-out: MINIMAL INHIBITORY CONCENTRATION MIC, pre-incubated in Mouse Serum",0.5 µg/mL
same,MIC,"E. faecium GC 4556; GC4556, read-out: MINIMAL INHIBITORY CONCENTRATION MIC, pre-incubated in Water",1 µg/mL
